The results in this text go back to ChEMBL document CHEMBL5126531, “NAE modulators: A potential therapy for gastric carcinoma” (Eur J Med Chem, 2022).

Data set [1] addresses T1, SUMO-activating enzyme (Homo sapiens, UniProt Q9UBT2). As to the kind of experiment: Inhibition of recombinant human SAE1/UBA2 expressed in Escherichia coli assessed as reduction in transfer of […] to UBE2I enzyme.
In data set [2] the target is T2, NEDD8 activating enzyme (Homo sapiens, UniProt Q8TBC4).
T2 sequence (Q8TBC4 whole entry): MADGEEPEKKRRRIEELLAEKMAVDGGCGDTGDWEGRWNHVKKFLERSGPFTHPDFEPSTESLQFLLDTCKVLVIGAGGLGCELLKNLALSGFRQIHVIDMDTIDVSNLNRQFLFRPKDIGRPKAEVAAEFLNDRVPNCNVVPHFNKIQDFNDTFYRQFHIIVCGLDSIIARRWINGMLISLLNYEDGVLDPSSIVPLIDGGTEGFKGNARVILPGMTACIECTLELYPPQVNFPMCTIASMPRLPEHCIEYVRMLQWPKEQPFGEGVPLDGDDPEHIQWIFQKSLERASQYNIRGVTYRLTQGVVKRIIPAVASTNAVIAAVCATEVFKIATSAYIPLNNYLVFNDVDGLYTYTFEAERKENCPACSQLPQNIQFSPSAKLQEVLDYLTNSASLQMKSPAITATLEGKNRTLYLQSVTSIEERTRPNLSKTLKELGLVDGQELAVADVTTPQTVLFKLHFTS
T2 sequence (Q13564 whole entry): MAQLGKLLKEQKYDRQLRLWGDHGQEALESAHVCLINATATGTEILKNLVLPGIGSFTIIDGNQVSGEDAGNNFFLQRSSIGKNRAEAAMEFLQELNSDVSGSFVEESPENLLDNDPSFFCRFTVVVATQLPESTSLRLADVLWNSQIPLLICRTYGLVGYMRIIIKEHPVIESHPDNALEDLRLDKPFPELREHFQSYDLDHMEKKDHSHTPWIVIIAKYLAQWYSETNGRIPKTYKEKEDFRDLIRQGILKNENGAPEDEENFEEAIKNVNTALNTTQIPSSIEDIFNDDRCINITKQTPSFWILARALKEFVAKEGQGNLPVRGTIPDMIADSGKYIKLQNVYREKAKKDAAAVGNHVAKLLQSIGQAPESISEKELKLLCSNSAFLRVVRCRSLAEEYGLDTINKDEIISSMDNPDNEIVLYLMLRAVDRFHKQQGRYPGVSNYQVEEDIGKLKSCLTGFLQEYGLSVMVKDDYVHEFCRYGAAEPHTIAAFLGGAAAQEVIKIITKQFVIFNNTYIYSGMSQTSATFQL
As to the kind of experiment: Inhibition of recombinant human APPBP1/UBA3 expressed in Escherichia coli assessed as Ub/Ubl thioester transfer.

Data set [3] has as its target T3, Ubiquitin-like modifier-activating enzyme 1 (Homo sapiens, UniProt P22314).
T3 sequence (P22314 whole entry): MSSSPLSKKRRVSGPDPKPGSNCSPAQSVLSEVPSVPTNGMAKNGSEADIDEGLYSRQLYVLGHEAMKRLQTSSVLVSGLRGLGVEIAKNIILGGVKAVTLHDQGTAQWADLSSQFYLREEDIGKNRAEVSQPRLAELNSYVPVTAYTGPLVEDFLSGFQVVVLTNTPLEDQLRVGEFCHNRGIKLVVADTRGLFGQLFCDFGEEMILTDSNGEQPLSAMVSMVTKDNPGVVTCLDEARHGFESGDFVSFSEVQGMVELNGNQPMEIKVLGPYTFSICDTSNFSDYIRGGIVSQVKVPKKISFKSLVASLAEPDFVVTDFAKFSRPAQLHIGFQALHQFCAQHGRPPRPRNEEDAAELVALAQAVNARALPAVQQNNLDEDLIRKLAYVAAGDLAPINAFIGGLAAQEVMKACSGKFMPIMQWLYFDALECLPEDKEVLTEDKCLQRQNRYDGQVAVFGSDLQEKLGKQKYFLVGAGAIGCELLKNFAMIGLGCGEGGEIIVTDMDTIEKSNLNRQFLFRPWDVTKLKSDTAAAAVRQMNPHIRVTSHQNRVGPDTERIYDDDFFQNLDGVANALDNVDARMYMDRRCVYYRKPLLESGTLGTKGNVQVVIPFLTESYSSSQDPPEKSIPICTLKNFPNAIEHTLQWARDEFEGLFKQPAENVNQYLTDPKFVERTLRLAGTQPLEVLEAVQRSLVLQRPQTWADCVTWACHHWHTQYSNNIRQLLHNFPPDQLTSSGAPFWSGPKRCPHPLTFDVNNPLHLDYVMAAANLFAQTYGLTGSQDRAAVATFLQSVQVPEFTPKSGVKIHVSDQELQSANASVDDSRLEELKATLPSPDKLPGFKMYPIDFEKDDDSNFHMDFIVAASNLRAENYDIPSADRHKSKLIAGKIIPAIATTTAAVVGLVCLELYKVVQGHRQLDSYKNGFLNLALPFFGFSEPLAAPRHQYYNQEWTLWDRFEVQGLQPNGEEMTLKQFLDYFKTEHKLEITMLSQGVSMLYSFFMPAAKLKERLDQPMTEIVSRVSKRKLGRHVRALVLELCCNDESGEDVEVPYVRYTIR
The data set is described as follows: Inhibition of recombinant C-terminal His-tagged human full length UAE1 expressed in Escherichia coli BL21 (lambdaDE3) assessed as reduction in transfer of Ub to UBE2C enzyme.

Data set [4] is described as follows: Toxicity in SCID mouse xenografted with human TMD8 cells expressing luciferase gene assessed as survival days at 100 mg/kg/day, iv administered at 1 to 21 days cycle for 8 cycles. Format: organism-based. Conditions: in vivo, time 1-21 day.
Data set [5] deals with CCRF-CEM. As to the kind of experiment: Antiproliferative activity against human CCRF-CEM assessed as net growth rate at <1 uM […] by CellTiter-Glo assay relative to control. Format: functional.
The target of data set [6] is T4, NEDD8-activating enzyme E1 regulatory subunit (Homo sapiens, UniProt Q13564).
T4 sequence (Q13564 whole entry): T2 sequence (Q13564 whole entry)
The data set is described as follows: Inhibition of NAE (unknown origin).

In data set [7] the target is T3, Ubiquitin-like modifier-activating enzyme 1. The data set is described as follows: Inhibition of UAE (unknown origin).
For data set [8], the system named is MGC-803. The data set is described as follows: Induction of apoptosis in human MGC-803 cells assessed as total apoptotic cells at 0.5 micromol/L incubated for 48 hrs by Annexin V-FITC/PI staining based flow cytometric analysis (reference value: 3.2%). Format: functional. Conditions: dose 0.5 µmol/L, at 0.5 µM.
The subject of data set [9] is MGC-803. The data set is described as follows: Antiproliferative activity against human MGC-803 cells assessed as inhibition of cell growth incubated for 48 hrs by MTT assay. The data set is classed as functional, cell-based. The note with it: MGC-803, 48 h. In general terms: Formazan colour is commonly taken as a measure of viable cells.
The test system of data set [10] is MGC-803. As to the kind of experiment: Induction of apoptosis in human MGC-803 cells assessed as total apoptotic cells at 1 micromol/L incubated for 48 hrs by Annexin V-FITC/PI staining based flow cytometric analysis (reference value: 3.2%). The data set is classed as functional. The note with it: dose 1 µmol/L, at 1 µM.
The test system of data set [11] is MGC-803. As to the kind of experiment: Induction of apoptosis in human MGC-803 cells assessed as total apoptotic cells at 2 micromol/L incubated for 48 hrs by Annexin V-FITC/PI staining based flow cytometric analysis (reference value: 3.2%). The data set is classed as functional. Conditions: dose 2 µmol/L, at 2 µM. On the technique in general: Flow cytometry measures light scatter and fluorescence of single cells or particles in a stream.

Data set [12] has as its target T5, NEDD8-conjugating enzyme Ubc12 (Homo sapiens, UniProt P61081).
T5 sequence (P61081 whole entry): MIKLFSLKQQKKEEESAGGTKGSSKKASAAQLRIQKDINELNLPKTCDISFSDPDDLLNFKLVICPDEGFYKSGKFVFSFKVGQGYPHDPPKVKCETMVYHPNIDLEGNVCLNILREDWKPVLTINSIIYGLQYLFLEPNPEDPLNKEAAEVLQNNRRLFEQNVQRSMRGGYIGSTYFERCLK
As to the kind of experiment: Inhibition of Ubc12 (unknown origin)-neddylation incubated for 30 mins in presence of ATP by Western blot analysis. On the technique in general: Immunoblotting shows a protein as a band on a membrane.

Data set [13] addresses T6, Ubiquitin-like modifier-activating enzyme 6 (Homo sapiens, UniProt A0AVT1).
T6 sequence (A0AVT1 whole entry): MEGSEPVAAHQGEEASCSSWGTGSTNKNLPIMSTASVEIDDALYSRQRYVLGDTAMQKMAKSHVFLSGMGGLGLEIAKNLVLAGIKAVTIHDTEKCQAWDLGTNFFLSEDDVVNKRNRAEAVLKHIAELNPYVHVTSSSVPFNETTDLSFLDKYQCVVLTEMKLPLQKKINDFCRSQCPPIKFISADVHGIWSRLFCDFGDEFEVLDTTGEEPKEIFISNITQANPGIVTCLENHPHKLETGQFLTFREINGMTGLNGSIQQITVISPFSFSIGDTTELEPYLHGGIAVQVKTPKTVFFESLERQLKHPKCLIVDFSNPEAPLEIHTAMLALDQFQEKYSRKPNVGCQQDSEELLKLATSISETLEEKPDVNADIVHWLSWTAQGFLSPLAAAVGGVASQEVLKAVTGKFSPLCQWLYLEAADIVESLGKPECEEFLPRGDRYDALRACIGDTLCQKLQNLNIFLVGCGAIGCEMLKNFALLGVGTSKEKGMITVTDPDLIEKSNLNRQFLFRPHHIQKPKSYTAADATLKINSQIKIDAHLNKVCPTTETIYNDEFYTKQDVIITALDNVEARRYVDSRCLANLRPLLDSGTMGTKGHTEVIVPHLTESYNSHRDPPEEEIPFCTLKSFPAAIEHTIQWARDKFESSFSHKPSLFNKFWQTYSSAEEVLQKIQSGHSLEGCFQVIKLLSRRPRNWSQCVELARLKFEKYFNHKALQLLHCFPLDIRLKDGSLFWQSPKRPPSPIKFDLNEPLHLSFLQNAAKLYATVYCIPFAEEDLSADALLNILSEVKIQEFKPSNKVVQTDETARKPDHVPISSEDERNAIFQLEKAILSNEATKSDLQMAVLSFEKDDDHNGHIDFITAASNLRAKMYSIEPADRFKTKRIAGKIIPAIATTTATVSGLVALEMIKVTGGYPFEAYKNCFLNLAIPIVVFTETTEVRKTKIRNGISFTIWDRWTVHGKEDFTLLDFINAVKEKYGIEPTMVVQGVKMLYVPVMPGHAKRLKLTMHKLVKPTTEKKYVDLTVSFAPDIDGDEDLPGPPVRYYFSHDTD
The data set is described as follows: Inhibition of His-tagged UBA6 (unknown origin) expressed in sf9 insect cells.

The target in data set [14] is T7, Ubiquitin-like modifier-activating enzyme ATG7 (Homo sapiens, UniProt O95352).
T7 sequence (O95352 whole entry): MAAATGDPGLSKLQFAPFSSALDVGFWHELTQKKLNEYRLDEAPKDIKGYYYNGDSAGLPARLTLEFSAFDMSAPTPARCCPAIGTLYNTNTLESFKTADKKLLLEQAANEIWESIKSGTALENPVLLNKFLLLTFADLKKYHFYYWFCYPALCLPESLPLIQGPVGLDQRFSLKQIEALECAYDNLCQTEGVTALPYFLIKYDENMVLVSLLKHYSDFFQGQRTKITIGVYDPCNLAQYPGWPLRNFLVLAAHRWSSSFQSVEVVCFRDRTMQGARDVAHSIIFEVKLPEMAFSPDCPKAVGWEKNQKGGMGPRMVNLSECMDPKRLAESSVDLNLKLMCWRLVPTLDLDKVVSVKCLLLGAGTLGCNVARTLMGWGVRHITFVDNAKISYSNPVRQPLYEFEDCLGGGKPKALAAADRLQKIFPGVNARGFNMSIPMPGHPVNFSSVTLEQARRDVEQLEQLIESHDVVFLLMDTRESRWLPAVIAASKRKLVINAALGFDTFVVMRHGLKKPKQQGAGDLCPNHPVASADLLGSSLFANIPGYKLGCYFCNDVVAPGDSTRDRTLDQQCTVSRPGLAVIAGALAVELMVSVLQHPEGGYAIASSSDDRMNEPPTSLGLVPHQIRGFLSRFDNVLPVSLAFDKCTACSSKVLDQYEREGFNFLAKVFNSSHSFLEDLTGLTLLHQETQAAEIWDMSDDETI
As to the kind of experiment: Inhibition of His-tagged ATG7 (unknown origin) expressed in sf9 insect cells.

Data set [15] has as its target T1, SUMO-activating enzyme. As to the kind of experiment: Inhibition of SAE1/UBA2 in human HCT-116 cells assessed as reduction in Ubc9-SUMO level incubated for 24 hrs by immunoblot analysis. The data set is classed as cell-based.

The term IC50 denotes the midpoint of a concentration-inhibition curve.

T1 sequence (Q9UBE0 whole entry): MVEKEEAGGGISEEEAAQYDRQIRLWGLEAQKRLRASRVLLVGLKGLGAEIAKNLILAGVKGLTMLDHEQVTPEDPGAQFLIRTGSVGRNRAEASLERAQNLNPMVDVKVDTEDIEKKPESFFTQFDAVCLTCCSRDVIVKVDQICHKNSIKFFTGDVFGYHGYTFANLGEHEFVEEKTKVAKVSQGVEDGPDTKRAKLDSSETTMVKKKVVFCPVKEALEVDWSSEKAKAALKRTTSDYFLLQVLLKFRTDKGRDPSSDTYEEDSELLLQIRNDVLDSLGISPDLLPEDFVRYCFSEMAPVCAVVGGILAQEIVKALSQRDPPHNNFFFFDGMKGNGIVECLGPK
T1 sequence (Q9UBT2 whole entry): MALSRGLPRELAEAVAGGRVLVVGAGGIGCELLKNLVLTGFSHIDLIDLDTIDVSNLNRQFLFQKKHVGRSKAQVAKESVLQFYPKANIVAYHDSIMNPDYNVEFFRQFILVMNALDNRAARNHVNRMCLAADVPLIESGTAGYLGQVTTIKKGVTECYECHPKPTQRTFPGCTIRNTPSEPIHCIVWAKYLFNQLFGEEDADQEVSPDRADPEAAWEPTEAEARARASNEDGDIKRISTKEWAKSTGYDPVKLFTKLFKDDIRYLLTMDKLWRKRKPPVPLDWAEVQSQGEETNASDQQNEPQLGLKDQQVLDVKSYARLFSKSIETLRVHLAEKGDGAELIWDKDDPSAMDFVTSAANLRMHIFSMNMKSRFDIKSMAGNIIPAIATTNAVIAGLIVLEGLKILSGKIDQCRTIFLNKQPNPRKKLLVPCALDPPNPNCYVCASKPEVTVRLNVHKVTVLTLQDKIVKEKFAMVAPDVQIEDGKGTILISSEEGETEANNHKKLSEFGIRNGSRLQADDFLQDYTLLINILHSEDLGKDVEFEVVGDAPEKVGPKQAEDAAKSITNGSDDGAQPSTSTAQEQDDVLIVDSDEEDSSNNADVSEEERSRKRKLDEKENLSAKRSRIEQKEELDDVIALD

Consider `CCOc1cccc(F)c1C#Cc1cn([C@@H]2O[C@H](CNS(N)(=O)=O)[C@@H](O)[C@H]2O)c2ncnc(N)c12`, for which the half-maximal inhibitory concentration (IC50) in data set [1] is 1280 nM; in [2], 0.955 nM; in data set [3] it was 449 nM. The Survival in data set [4] was above 159 days. For the same compound, the Activity in data set [5] was 0%.

For the compound `COC(=O)N1CCC2(CC1)C[C@H](Nc1ncnc3c1nnn3[C@@H]1C[C@@H](COS(N)(=O)=O)[C@@H](O)C1)c1ccccc12`, the IC50 in [6] was 0.5 nM; in data set [7], 66 nM.

For the compound `COc1ccc(CN(C(=O)Cn2ccc3cc(OC)ccc32)c2cc(OC)c(OC)c(OC)c2)cc1`, the Activity in [8] is given as 4.4%; in data set [10], 11.1%; in data set [11] it was 65.2%. Moreover, the IC50 in data set [9] was determined as 1590 nM.

For `CC(C)=CCc1c(O)c(CC=C(C)C)c2oc3c(O)ccc(O)c3c(=O)c2c1O` [GARTANIN], in data set [12], the half-maximal inhibitory concentration (IC50) was found to be 10300 nM.

With `NS(=O)(=O)OC[C@@H]1C[C@@H](n2ccc3c(N[C@H]4CCc5ccccc54)ncnc32)C[C@@H]1O` [PEVONEDISTAT], the values for the IC50 in [13], in data set [14] and in [15] were 1800 nM, above 10000 nM and 8200 nM, respectively.
